In patent US12077503B2, “Substituted cyclic amides and their use as herbicides” (FMC CORPORATION, priority 2015, dated 2024):

What was measured:
Assay type in all cases: in vivo
[1] = system: ducksalad (Heteranthera limosa); experiment: Test B flooded paddy test; settings: Heteranthera limosa, Flood, 250 g ai/ha; scale of 0 to 100 where 0 is no effect and 100 is complete control; read-out: Ducksalad plant response rating
In short: (§1)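 Evaluation by eye, against controls, occurred 13–15 d post-treatment in a greenhouse, using a 0 (no effect) to 100 (complete control) scale. Application was into the paddy water, 3 cm deep over the soil, on 2-leaf plants.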

[2] = system: sedge, umbrella (small-flower umbrella sedge, Cyperus difformis); experiment: Test B flooded paddy test; settings: Cyperus difformis, Flood, 250 g ai/ha; scale of 0 to 100 where 0 is no effect and 100 is complete control; read-out: Sedge, Umbrella plant response rating
In short: as §1

rice (Oryra sativa) = experiment: Test B flooded paddy test; settings: Oryza sativa, Flood, 250 g ai/ha; scale of 0 to 100 where 0 is no effect and 100 is complete control; read-out: Rice plant response rating
In short: as §1

[3] = system: barnyardgrass (Echinochloa crus-galli); experiment: Test B flooded paddy test; settings: Echinochloa crus-galli, Flood, 250 g ai/ha; scale of 0 to 100 where 0 is no effect and 100 is complete control; read-out: Barnyardgrass plant response rating
In short: as §1

[4] = system: blackgrass (Alopecurus myosuroides); experiment: Test A postemergence; settings: Alopecurus myosuroides, post-emergence, 240 h, 125 g ai/ha, postemergence; visual injury after approximately 10 d; 0 to 100 scale (0 no effect, 100 complete control); read-out: Plant response rating, Blackgrass
In short: (§2)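 Seeds sprayed preemergence with a directed soil spray, or plants at 2 to 10 cm height and one- to two-leaf stage sprayed postemergence, with test chemicals in a non-phytotoxic solvent mixture containing surfactant, in loam soil–sand blend. Injury rated visually against untreated controls after about 10 d in greenhouse, 0 (no effect) to 100 (complete control).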

corn (Zea mays) = experiment: Test A postemergence; settings: Zea mays, post-emergence, 240 h, 125 g ai/ha, postemergence; visual injury after approximately 10 d; 0 to 100 scale (0 no effect, 100 complete control)
In short: as §2

[5] = system: giant foxtail (Setaria faberii); experiment: Test A postemergence; settings: Setaria faberi, post-emergence, 240 h, 125 g ai/ha, postemergence; visual injury after approximately 10 d; 0 to 100 scale (0 no effect, 100 complete control); read-out: Plant response rating, Foxtail, Giant
In short: as §2

[6] = system: Galium (catchweed bedstraw, Galium aparine); experiment: Test A postemergence; settings: Galium, post-emergence, 240 h, 125 g ai/ha, postemergence; visual injury after approximately 10 d; 0 to 100 scale (0 no effect, 100 complete control); read-out: Plant response rating, Galium
In short: as §2

[7] = system: wheat (Triticum aestivum); experiment: Test A postemergence; settings: Triticum aestivum, post-emergence, 240 h, 125 g ai/ha, postemergence; visual injury after approximately 10 d; 0 to 100 scale (0 no effect, 100 complete control); read-out: Plant response rating, Wheat
In short: as §2

[8] = system: pigweed (Amaranthus retroflexus); experiment: Test A postemergence; settings: Amaranthus retroflexus, post-emergence, 240 h, 125 g ai/ha, postemergence; visual injury after approximately 10 d; 0 to 100 scale (0 no effect, 100 complete control); read-out: Plant response rating, Pigweed
In short: as §2

[9] = system: ragweed (common ragweed, Ambrosia elatior); experiment: Test A postemergence; settings: Ambrosia artemisiifolia, post-emergence, 240 h, 125 g ai/ha, postemergence; visual injury after approximately 10 d; 0 to 100 scale (0 no effect, 100 complete control); read-out: Plant response rating, Ragweed
In short: as §2

[10] = system: barnyardgrass (Echinochloa crus-galli); experiment: Test A postemergence; settings: Echinochloa crus-galli, post-emergence, 240 h, 125 g ai/ha, postemergence; visual injury after approximately 10 d; 0 to 100 scale (0 no effect, 100 complete control); read-out: Plant response rating, Barnyardgrass
In short: as §2

[11] = system: ryegrass, Italian (Italian ryegrass, Lolium multiflorum); experiment: Test A postemergence; settings: Lolium multiflorum, post-emergence, 240 h, 125 g ai/ha, postemergence; visual injury after approximately 10 d; 0 to 100 scale (0 no effect, 100 complete control); read-out: Plant response rating, Ryegrass, Italian
In short: as §2

Kochia (Kochia scoparia) = experiment: Test A postemergence; settings: Bassia scoparia, post-emergence, 240 h, 125 g ai/ha, postemergence; visual injury after approximately 10 d; 0 to 100 scale (0 no effect, 100 complete control); read-out: Plant response rating, Kochia
In short: as §2

Cc1cc([C@H]2CNC(=O)[C@@H]2C(=O)Nc2ccc(F)cc2F)ccc1F [Compound 718]
pest or weed control at 250 g/ha [1]: 100%
pest or weed control at 250 g/ha [2]: 0%
pest or weed control at 250 g/ha (rice (Oryra sativa)): 0%
pest or weed control at 250 g/ha [3]: 40%
pest or weed control at 125 g/ha [4]: 20%
Corn plant response rating (crop injury, 0 = no effect, 100 = complete kill) at 125 g/ha (corn (Zea mays)): 0%
pest or weed control at 125 g/ha [5]: 30%
pest or weed control at 125 g/ha [6]: 40%
plant injury at 125 g/ha [7]: 0%
pest or weed control at 125 g/ha [8]: 0%
pest or weed control at 125 g/ha [9]: 0%
pest or weed control at 125 g/ha [10]: 70%
pest or weed control at 125 g/ha [11]: 0%
pest or weed control at 125 g/ha (Kochia (Kochia scoparia)): 30%

Cc1cc([C@H]2CN(C)C(=O)[C@@H]2C(=O)Nc2ccc(F)c(F)c2F)ccc1F [Compound 719]
pest or weed control at 250 g/ha [1]: 100%
pest or weed control at 250 g/ha [2]: 0%
pest or weed control at 250 g/ha (rice (Oryra sativa)): 0%
pest or weed control at 250 g/ha [3]: 85%
pest or weed control at 125 g/ha [4]: 60%
Corn plant response rating (crop injury, 0 = no effect, 100 = complete kill) at 125 g/ha (corn (Zea mays)): 90%
pest or weed control at 125 g/ha [5]: 90%
pest or weed control at 125 g/ha [6]: 60%
plant injury at 125 g/ha [7]: 80%
pest or weed control at 125 g/ha [8]: 50%
pest or weed control at 125 g/ha [9]: 30%
pest or weed control at 125 g/ha [10]: 90%
pest or weed control at 125 g/ha [11]: 50%
pest or weed control at 125 g/ha (Kochia (Kochia scoparia)): 60%

Cc1ccc([C@H]2CNC(=O)[C@@H]2C(=O)Nc2cccc(F)c2F)c(F)c1 [Compound 720]
pest or weed control at 250 g/ha [1]: 100%
pest or weed control at 250 g/ha [2]: 0%
pest or weed control at 250 g/ha (rice (Oryra sativa)): 0%
pest or weed control at 250 g/ha [3]: 30%
pest or weed control at 125 g/ha [4]: 20%
Corn plant response rating (crop injury, 0 = no effect, 100 = complete kill) at 125 g/ha (corn (Zea mays)): 0%
pest or weed control at 125 g/ha [5]: 20%
pest or weed control at 125 g/ha [6]: 50%
plant injury at 125 g/ha [7]: 0%
pest or weed control at 125 g/ha [8]: 0%
pest or weed control at 125 g/ha [9]: 0%
pest or weed control at 125 g/ha [10]: 90%
pest or weed control at 125 g/ha [11]: 0%
pest or weed control at 125 g/ha (Kochia (Kochia scoparia)): 50%
